Patent US20260097137A1, “FLUORESCENT PROBE COMPOUNDS FOR TUMOR TARGETING IMAGING, AND SYNTHESIS METHOD THEREFOR” (HEBEI MEDICAL UNIVERSITY, priority 2023, published 2026)

What was measured:
[1] = test system: tumors with high folate receptor expression; settings: e.g., ovarian cancer, non-small cell lung cancer; background statement; cited from earlier work
M1 macrophages = test: In vitro fluorescence microscopy assay, FR- M1-type macrophages; type: cell-based; settings: probe 1 μM, 30 minutes
Protocol: (§1) To investigate the targeting capability of compound GT-NIR-1 toward folate receptor-expressing cells and its subcellular localization, FR^+ KB cells, FR^− A549 cells, FR^+ M2-type macrophages, and FR^− M1-type macrophages were seeded in confocal-specific culture dishes at a density of 3×10^5 cells per dish. The cells were cultured at 37° C. under 5% CO2 for 24 hours. Subsequently, the cells were incubated with GT-NIR-1 (1 μM) for 30 minutes. For competitive binding assays, KB cells and M2 macrophages were co-treated with a 100-fold excess of folic acid (100 μM) and GT-NIR-1 (1 μM) for 30 minutes. After incubation, all cells were washed three times with PBS (pH=7.4). Fluorescence was excited at 775 nm, and cellular fluorescence imaging was observed using confocal fluorescence microscopy (FIG. 4 and FIG. 5).

A549 cells = test: In vitro fluorescence microscopy assay, FR- A549 cells; type: cell-based; settings: probe 1 μM, 30 minutes
Protocol: as §1

FRβ (in M2 macrophages) = biological target: T1, FRβ (in M2 macrophages) (Homo sapiens, UniProt P14207); test: In vitro fluorescence microscopy assay, FR+ M2-type macrophages; type: cell-based; settings: probe 1 μM, 30 minutes, excitation 775 nm
T1 construct: endogenous in cells
T1 sequence (P14207 17-230, species assumed): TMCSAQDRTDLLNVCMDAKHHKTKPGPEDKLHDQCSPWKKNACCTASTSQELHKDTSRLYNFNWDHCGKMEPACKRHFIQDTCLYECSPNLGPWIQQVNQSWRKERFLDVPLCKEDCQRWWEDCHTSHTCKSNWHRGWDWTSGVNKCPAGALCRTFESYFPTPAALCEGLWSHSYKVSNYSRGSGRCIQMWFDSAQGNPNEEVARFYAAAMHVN
Protocol: as §1

FRα (in KB cells) = biological target: T2, FRα (in KB cells) (Homo sapiens, UniProt P15328); test: In vitro fluorescence microscopy assay, FR+ KB cells; type: cell-based; settings: probe 1 μM, 30 minutes, excitation 775 nm
T2 construct: endogenous in cells; host or cells: KB cells
T2 sequence (P15328 25-234): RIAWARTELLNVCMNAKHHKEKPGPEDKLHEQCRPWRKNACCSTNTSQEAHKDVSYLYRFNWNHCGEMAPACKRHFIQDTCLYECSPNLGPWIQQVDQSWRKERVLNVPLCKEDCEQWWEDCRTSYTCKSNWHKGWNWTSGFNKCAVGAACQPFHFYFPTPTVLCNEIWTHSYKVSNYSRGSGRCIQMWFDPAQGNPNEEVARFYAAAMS
Protocol: as §1

FRα = biological target: T3, FRα (Homo sapiens, UniProt P15328); test: In vitro affinity assay of GT-NIR series probes by flow cytometry, KB cells; type: cell-based; settings: 500 nM, 1 hour, order GT-NIR-5 > GT-NIR-4 > GT-NIR-1
T3 construct: endogenous in cells; host or cells: KB cells
T3 sequence (P15328 25-234): as above
Protocol: (§2) To compare the targeting affinity of different compounds in the GT-NIR series for folate receptors, FR^+ KB cells and M2 macrophages were seeded in 6-well plates at a density of 1×10^6 cells per well. After 24 hours of culture, the medium was replaced with folate-free fresh medium as a blank control. IR783 (500 nM) was added to exclude false-positive effects. Media containing GT-NIR series compounds (500 nM) were added to different wells and incubated for 1 hour. The cells were then digested with trypsin, washed three times with PBS (pH=7.4), and centrifuged (2000 rpm, 5 minutes) to remove unbound probes. The cells were resuspended in […] PBS, stored in light-protected BD Falcon tubes, and analyzed by flow cytometry. Statistical data were processed using FlowJo software (FIG. 6 and FIG. 7).

FRβ = biological target: T4, FRβ (Homo sapiens, UniProt P14207); test: In vitro affinity assay of GT-NIR series probes by flow cytometry, M2 macrophages; type: cell-based; settings: 500 nM, 1 hour, order GT-NIR-5 > GT-NIR-4 > GT-NIR-1
T4 construct: endogenous in cells
T4 sequence (P14207 17-230, species assumed): as the sequence (P14207 17-230, species assumed) above
Protocol: as §2

folate receptors = settings: background statement; cited from earlier work
[2] = test system: FR-positive KB xenografts; test: In vivo small animal imaging, FR+ KB cell xenografts; design: species or system mice; settings: KB xenograft competition group, 100× excess folic acid
Protocol: (§3) Subcutaneous tumor models were established using FR^+ KB cell xenografts and FR A549 cell xenografts. The A549 xenograft model served as the negative control group, while a competition group was included to validate the in vivo targeting specificity of the probes toward tissues with high folate receptor expression. When tumor volumes reached 300-400 mm^3, the following treatments were administered via tail vein injection: • Blank control group: 100 μL saline; • Experimental groups: respective probes (10 nmol, dissolved in 100 μL saline); • Competition group: pre-injection of 100× excess folic acid ([…] in 100 μL saline) 15 minutes prior to probe administration (10 nmol in 100 μL saline).
(§4) Whole-body fluorescence imaging was performed using an IVIS imaging system with 750-800 nm excitation light at 2, 4, 8, 12, 24, and 48 hours post-injection. At 8 hours after systemic imaging, the mice were euthanized, and organs were collected for ex vivo tissue biodistribution analysis using the IVIS system.
The in vivo imaging capability of the GT-IR series compounds was evaluated in the FR^+ KB cell xenograft model following the same experimental procedure. Imaging was performed at 8 hours post-injection using the IVIS system with 750-800 nm excitation light. After euthanasia, organs were collected and subjected to ex vivo biodistribution analysis.

[3] = test system: FR-negative A549 xenograft; test: In vivo small animal imaging, FR-negative A549 cell xenografts; design: species or system mice; settings: A549 xenograft negative control group, 10 nmol tail vein
Protocol: as §3, §4

CC1(C)C(/C=C/C2=C(Oc3ccc(C[C@H](NC(=O)c4ccc(NCc5cnc6nc(N)[nH]c(=O)c6n5)cc4)C(=O)[O-])cc3)C(=C/C=C3\N(CCCCS(=O)(=O)[O-])c4ccc(S(=O)(=O)[O-])cc4C3(C)C)/CCC2)=[N+](CCCCS(=O)(=O)[O-])c2ccc(S(=O)(=O)[O-])cc21.[H+].[H+].[H+].[H+] [OTL38]
tumor illumination and dye accumulation [1]: illuminates tumor tissue at significant depths

CC1(C)C(/C=C/C2=C(Oc3ccc(C[C@H](NC(=O)CNC(=O)Cc4cc5c(=O)[nH]c(N)nc5[nH]4)C(=O)O)cc3)C(=C/C=C3/N(CCCCS(=O)(=O)O)c4ccccc4C3(C)C)/CCC2)=[N+](CCCCS(=O)(=O)[O-])c2ccccc21 [GT-NIR-1]
accumulation in folate receptor-negative cells (M1 macrophages): no accumulation was observed | accumulation in folate receptor-negative cells (A549 cells): no accumulation was observed | cell entry / fluorescence imaging by confocal microscopy (FRβ (in M2 macrophages)): successfully entered cells via targeting folate receptors | cell entry / fluorescence imaging by confocal microscopy (FRα (in KB cells)): successfully entered cells via targeting folate receptors

CC1(C)C(/C=C/C2=C(Oc3ccc(C[C@H](NC(=O)c4ccc(CCCCc5cc6c(=O)[nH]c(N)nc6[nH]5)s4)C(=O)O)cc3)C(=C/C=C3/N(CCCCS(=O)(=O)O)c4ccccc4C3(C)C)/CCC2)=[N+](CCCCS(=O)(=O)O)c2ccccc21 [GT-NIR-5]
binding affinity for FRα (rank order within GT-NIR series) (FRα): highest binding affinity | binding affinity for FRβ (rank order within GT-NIR series) (FRβ): highest binding affinity

Nc1nc2ncc(CNc3ccc(C(=O)N[C@@H](CCC(=O)O)C(=O)O)cc3)nc2c(=O)[nH]1 [folic acid]
Kd (folate receptors): ~1 nM

CC1(C)C(/C=C/C2=C(Oc3ccc(C[C@H](NC(=O)c4ccc(CCCCc5cc6c(=O)[nH]c(N)nc6[nH]5)cc4)C(=O)O)cc3)C(=C/C=C3/N(CCCCS(=O)(=O)O)c4ccccc4C3(C)C)/CCC2)=[N+](CCCCS(=O)(=O)[O-])c2ccccc21 [GT-NIR-4]
clearance from the body [2]: rapidly cleared from the body | targeted tumor imaging, whole-body fluorescence [2]: no targeted tumor imaging was observed | clearance from the body [3]: rapidly cleared from the body | targeted tumor imaging, whole-body fluorescence [3]: no targeted tumor imaging was observed
